Source: the NIST ThermoML archive (doi:10.1016/j.tca.2013.08.031)
Several values for one entry are separate records, joined by “and”; a condition that tells them apart may be missing. Equal values may be shown once. Numbers after ± are expanded uncertainties.

Test: molar heat capacity at constant volume
Details: Fluid (supercritical or subcritical phases), Vacuum adiabatic calorimetry

CCC(C)O (stereo not drawn) [butan-2-ol]
Details | molar heat capacity at constant volume
424.93 K, Mass density=683.53 kg/m3 | 230.44 ± 2.3 J/K/mol
425.14 K, Mass density=683.53 kg/m3 | 231.33 ± 2.3 J/K/mol
425.75 K, Mass density=683.53 kg/m3 | 231.19 ± 2.3 J/K/mol
425.96 K, Mass density=683.53 kg/m3 | 230.89 ± 2.3 J/K/mol and 228.44 ± 2.3 J/K/mol
426.16 K, Mass density=683.53 kg/m3 | 227.48 ± 2.3 J/K/mol
426.37 K, Mass density=683.53 kg/m3 | 226.74 ± 2.3 J/K/mol
426.58 K, Mass density=683.53 kg/m3 | 227.41 ± 2.3 J/K/mol
426.78 K, Mass density=683.53 kg/m3 | 227.03 ± 2.3 J/K/mol
426.99 K, Mass density=683.53 kg/m3 | 227.48 ± 2.3 J/K/mol
431.29 K, Mass density=648.53 kg/m3 | 278.03 ± 2.8 J/K/mol
431.49 K, Mass density=648.53 kg/m3 | 279.14 ± 2.8 J/K/mol
431.7 K, Mass density=648.53 kg/m3 | 277.66 ± 2.8 J/K/mol
431.9 K, Mass density=648.53 kg/m3 | 277.88 ± 2.8 J/K/mol
432.31 K, Mass density=648.53 kg/m3 | 278.77 ± 2.8 J/K/mol
432.51 K, Mass density=648.53 kg/m3 | 277.14 ± 2.8 J/K/mol
432.72 K, Mass density=648.53 kg/m3 | 277.44 ± 2.9 J/K/mol
432.92 K, Mass density=648.53 kg/m3 | 279.22 ± 2.9 J/K/mol
432.92 K, Mass density=683.53 kg/m3 | 227.18 ± 2.3 J/K/mol
433.12 K, Mass density=648.53 kg/m3 | 278.55 ± 2.9 J/K/mol
433.12 K, Mass density=683.53 kg/m3 | 228 ± 2.3 J/K/mol
433.33 K, Mass density=648.53 kg/m3 | 272.99 ± 2.8 J/K/mol
433.33 K, Mass density=683.53 kg/m3 | 227.63 ± 2.3 J/K/mol
433.53 K, Mass density=648.53 kg/m3 | 225.03 ± 2.4 J/K/mol
433.53 K, Mass density=683.53 kg/m3 | 227.78 ± 2.3 J/K/mol
433.73 K, Mass density=648.53 kg/m3 | 224.81 ± 2.4 J/K/mol
433.73 K, Mass density=683.53 kg/m3 | 228.29 ± 2.3 J/K/mol
433.94 K, Mass density=648.53 kg/m3 | 222.29 ± 2.4 J/K/mol
434.14 K, Mass density=648.53 kg/m3 | 223.48 ± 2.4 J/K/mol
434.55 K, Mass density=648.53 kg/m3 | 221.92 ± 2.2 J/K/mol
434.75 K, Mass density=648.53 kg/m3 | 221.25 ± 2.2 J/K/mol
434.96 K, Mass density=648.53 kg/m3 | 222.96 ± 2.2 J/K/mol
435.16 K, Mass density=648.53 kg/m3 | 222.74 ± 2.2 J/K/mol
435.36 K, Mass density=648.53 kg/m3 | 222.88 ± 2.2 J/K/mol
449.87 K, Mass density=598.18 kg/m3 | 278.18 ± 2.8 J/K/mol
450.07 K, Mass density=598.18 kg/m3 | 277.14 ± 2.8 J/K/mol
450.27 K, Mass density=598.18 kg/m3 | 279.22 ± 2.8 J/K/mol
450.47 K, Mass density=598.18 kg/m3 | 276.18 ± 2.8 J/K/mol
450.66 K, Mass density=598.18 kg/m3 | 277.36 ± 2.8 J/K/mol
457.62 K, Mass density=648.53 kg/m3 | 222.14 ± 2.2 J/K/mol
457.82 K, Mass density=598.18 kg/m3 | 274.62 ± 2.7 J/K/mol
457.82 K, Mass density=648.53 kg/m3 | 221.85 ± 2.2 J/K/mol
458.02 K, Mass density=598.18 kg/m3 | 274.4 ± 2.7 J/K/mol
458.02 K, Mass density=648.53 kg/m3 | 222.88 ± 2.2 J/K/mol
458.22 K, Mass density=598.18 kg/m3 | 277.66 ± 2.8 J/K/mol
458.22 K, Mass density=648.53 kg/m3 | 224.51 ± 2.3 J/K/mol
458.41 K, Mass density=598.18 kg/m3 | 277.29 ± 2.8 J/K/mol
458.41 K, Mass density=648.53 kg/m3 | 223.62 ± 2.2 J/K/mol
458.61 K, Mass density=598.18 kg/m3 | 278.85 ± 2.8 J/K/mol
458.81 K, Mass density=598.18 kg/m3 | 277.59 ± 2.8 J/K/mol
459.01 K, Mass density=598.18 kg/m3 | 279.44 ± 2.8 J/K/mol
462.16 K, Mass density=598.18 kg/m3 | 275.88 ± 2.8 J/K/mol
462.36 K, Mass density=598.18 kg/m3 | 274.69 ± 2.7 J/K/mol
462.56 K, Mass density=598.18 kg/m3 | 273.58 ± 2.7 J/K/mol
